Type in all cases: in vivo, beagle dogs
A short description of data set [1]: Observation for evaluation of diarrhea (stool property). Also on record: key to stool property: -: normal stool; ±: slightly soft stool; +: soft stool; ++: mild diarrhea; +++: diarrhea. The following applies: for stool property: one line per animal. From the text: In Test Example 1, the stool property was monitored every day and rated on the 5-point scale of -: normal, ±: slightly soft stool, +: soft stool, ++: mild diarrhea, +++: diarrheal.

The subject of data set [2] is fibrin clot. Description: Fibrinolytic action: lysis of 125I-fibrin clot made from plasma obtained 48 hr after drug administration. Conditions: for Fibrinolysis (%) : (24 hr after addition of Urokinase): N 4, mean S.E. On the procedure:
The plasma obtained 48 hr after drug administration in Test Example 1 was used in this test.
To 0.35 ml of plasma was added 40 µl ^125I-fibrinogen (185 kBq/ml) and the mixture was dispensed to 3 test tubes, 0.1 ml per tube. To each of the test tubes was added 10 µl each of 100 µU/ml thrombin solution and 0.5 M calcium chloride solution and, after stirring, each tube was incubated at 37°C for 30 min to prepare a fibrin clot. Then, 2% albumin-saline containing 0, 50 or 100 U of urokinase was added to the tubes, 1 ml per tube. The tubes were incubated at 37°C and at 0, 3, 6, 9, 21 and 24 hr of incubation, 50µl of the supernatant was taken in a RIA tube and using a γ-counter (Packard Japan, A5424), the amount of the ^125I-fibrin degradated product was determined.

In data set [3] the test system is α2-PI. Description: Assay of α2-PI activity in plasma after oral administration. Conditions: oral once a day for 3 days (0, 24, 48 hr), 116 mg/kg compound A as printed, Fig. 1. The procedure:
The drugs were administered to groups of 4 beagle dogs (22-23 months old, body weights 9-11 kg) and the blood was serially sampled (-120, 0, 6, 24, 48, 72, 96, and 168 hr) for assay of α2-PI activity. One capsule of either compound A or compound B was administered orally once a day for 3 days (at 0, 24, and 48 hr) [116 mg/kg compound A or 300 mg/kg compound B (equimolar to compound A)]. Blood sampling was carried out by drawing 9 volumes of blood into a vacuum blood sampling tube containing 1 volume of 3.8% sodium citrate and, after gentle mixing, each blood sample was centrifuged (3,000 rpm x 10 min.) to separate the plasma. The plasma α2-PI activity was assayed with Test Team APL 2 Kit using the cleavage of the synthetic chromogenic substrate S-2251 as an indicator by plasmin.

Structures are written as SMILES. “And” between values parts separate entries of the source, which are not always exact repeats. Equal values may be shown once.

Consider `CCCC(=O)OCC1C(OC(=O)CCC)C(OC(=O)CCC)C(OC(=O)CCC)CN1C` (centres unmarked) [Compound A, 2,3,4,5-tetra-O-butyryl-N-methyl-moranoline], for which the stool property result is “+ and - and ± and +++” in data set [1] (Day 1, 300mg/kg oral once a day for 3 days, 300 mg/kg); “+++ and ± (2×) and -” in data set [1] (Day 3, 300mg/kg oral once a day for 3 days, 300 mg/kg); “± (2×) and - (2×)” in data set [1] (Day 4, 300mg/kg oral once a day for 3 days, 300 mg/kg); “± and - (3×)” in data set [1] (Day 7, 300mg/kg oral once a day for 3 days, 300 mg/kg). The diarrhea-inducing effect entry in data set [1] (summary of Table 2) is “less remarkable in diarrhea-inducing effect than compound B”. The “Fibrinolysis (%) : (24 hr after addition of Urokinase)” value was determined as 143 ± 27% in data set [2] (Urokinase 0U, 300mg/kg); 278 ± 31% in data set [2] (Urokinase 50U, 300mg/kg); 342 ± 30% in data set [2] (Urokinase 100U, 300mg/kg). In addition, the fibrinolytic activity entry in data set [2] (urokinase addition level of 100 U) was “significantly accelerated the fibrinolytic activity”. Besides, the α2-PI activity entry in data set [3] is reported as “decreased α2-PI activity significantly”.
With `CN1C[C@H](O)[C@@H](O)[C@H](O)[C@H]1CO` [Compound B, N-methylmoranoline, reference compound], the stool property entry in data set [1] (Day 1, 116mg/kg oral once a day for 3 days, 116 mg/kg) was “+++ (2×) and ++ and +”; in data set [1] (Day 3, 116mg/kg oral once a day for 3 days, 116 mg/kg) it was “+++ (3×) and + +”; in data set [1] (Day 4, 116mg/kg oral once a day for 3 days, 116 mg/kg) it was “+ (2×) and ± (2×)”; in data set [1] (Day 7, 116mg/kg oral once a day for 3 days), “-”. The “Fibrinolysis (%) : (24 hr after addition of Urokinase)” value in data set [2] (Urokinase 0U, 116mg/kg) came out at 172 ± 56%; in data set [2] (Urokinase 50U, 116mg/kg) it was 213 ± 27%; in data set [2] (Urokinase 100U, 116mg/kg) it was 340 ± 49%.

The values above are taken from patent EP0733364A1, “MEDICINAL COMPOSITION FOR CIRCULATORY ORGAN” (NIPPON SHINYAKU COMPANY, LIMITED, priority 1993, dated 1995).
